Source: US20150119373A1, “NOVEL BETULINIC ACID DERIVATIVES AS HIV INHIBITORS” (HETERO RESEARCH FOUNDATION, priority 2012, published 2015)

Legend:
[1] = Cyto-toxicity assay (MTT) in MT2 cells without virus; type: cell-based; conditions: human
Protocol: For cyto-toxicity assay the same amount of MT2 cells as in antiviral assay without virus was added to the 96 well plates. The cyto-toxicity was measured using MTT reagent in parallel with p24 estimation. The percent viability is calculated in comparison with vehicle control.

[2] = test system: HIV-1 strain 92HT599; assay: Antiviral activity: p24 estimation in MT2 cells infected with HIV-1 strain 92HT599; type: cell-based; conditions: Human immunodeficiency virus 1, MT2 cells, HIV-1 92HT599, ~96 hours, p24; for inhibition at 0.1 µM: 100 nM, read-out: Antiviral activity % inhibition 100 nM; for inhibition at 1 µM: 1000 nM, read-out: Antiviral activity % inhibition 1000 nM
Protocol: MT2 cells were infected with HIV-1 strain 92HT599 (10 TCID 50/30000 cells). The infected cells were plated at the concentration of […] cells per well in 96 well plate. Test compound was added to the micro plate in defined format with the final concentration of DMSO (vehicle) is not more than 1%. Incubation was carried out in CO2 incubator for ˜96 hours for viral infection. At the end of incubation period an aliquot from each well was taken for p24 estimation. The quantitation of p24 is an index for antiviral activity of the compound. Percent inhibition was calculated with reference to control values (vehicle controls).
p-24 estimation was carried out using Advance biosciences kit as per the procedure detailed by supplier.

Compound | viability at 100 nM [1] [%] | viability at 1000 nM [1] [%] | inhibition at 0.1 µM [2] [%] | inhibition at 1 µM [2] [%]
C=C(C)[C@@H]1CC[C@]2(C(=O)N3CCN(CC)CC3)CC[C@]3(C)[C@H](CC[C@@H]4[C@@]5(C)CC[C@H](OC(=O)[C@H]6[C@@H](CC(=O)O)C6(C)C)C(C)(C)[C@@H]5CC[C@]43C)[C@@H]12 [Example 19, 2-((1R,3S)-3-(((1R,3aS,5aR,5bR,7aR,9S,11aR,11bR,13aR,13bR)-3a-(4-ethylpiperazine-1-carbonyl)-5a,5b,8,8,11a-pentamethyl-1-(prop-1-en-2-yl)icosahydro-1H-cyclopenta[a]chrysen-9-yloxy)carbonyl)-2,2-dimethylcyclopropyl)aceticacid] | 100 | 100 | 91 | 95
CC(C)(CC(=O)O[C@H]1CC[C@]2(C)[C@H]3CC[C@@H]4[C@H]5[C@H](C6(C)CC6)CC[C@]5(C(=O)N5CCN(C(=O)C(C)(CO)CO)CC5)CC[C@@]4(C)[C@]3(C)CC[C@H]2C1(C)C)C(=O)O [Example 35] | 70 | 81 | 26 | 84
CCN1CCN(C2CCN(C(=O)[C@]34CC[C@@H](C5(C)CC5)[C@@H]3[C@H]3CC[C@@H]5[C@@]6(C)CC[C@H](OC(=O)[C@H]7C[C@@H](C(=O)O)C7(C)C)C(C)(C)[C@@H]6CC[C@@]5(C)[C@]3(C)CC4)CC2)CC1 [Example 46, (1R,3S)-3-((((1R,3aS,5aR,5bR,7aR,9S,11aR,11bR,13aR,13bR)-3a-(4-(4-ethylpiperazin-1-yl)piperidine-1-carbonyl)-5a,5b,8,8,11a-pentamethyl-1-(1-methylcyclopropyl)icosahydro-1H-cyclopenta[a]chrysen-9-yl)oxy)carbonyl)-2,2-dimethylcyclobutane-1-carboxylic acid] | 100 | 90 | 100 | 100
[2H]C([2H])([2H])C(N1CCN(C(=O)[C@H]2C[C@@H](NC(=O)[C@]34CC[C@@H](C(=C)C)[C@@H]3[C@H]3CC[C@@H]5[C@@]6(C)CC[C@H](OC(=O)CC(C)(C)C(=O)O)C(C)(C)[C@@H]6CC[C@@]5(C)[C@]3(C)CC4)C2(C)C)CC1)C([2H])([2H])[2H] [Example 8, 4-((1R,3aS,5aR,5bR,7aR,9S,11aR,11bR,13aR,13bR)-3a-((1R,3S)-3-(4-(1-methylethyl-2,2,2,1′,1′,1′-D6)piperazine-1-carbonyl)-2,2-dimethylcyclobutylcarbamoyl)-5a,5b,8,8,11a-pentamethyl-1-(prop-1-en-2-yl)icosahydro-1H-cyclopenta[a]chrysen-9-yloxy)-2,2-dimethyl-4-oxobutanoic acid] | 90 | 97 | 100 | 100
CC(C)(CC(=O)O)CC(=O)O[C@H]1CC[C@]2(C)[C@H]3CC[C@@H]4C5[C@H](C6(C)CC6)CC[C@]5(C(=O)N[C@H]5C[C@@H](C(=O)N6CCOCC6)C5(C)C)CC[C@@]4(C)[C@]3(C)CC[C@H]2C1(C)C (stereo partly drawn) [Example 52, 5-(((1R,3aS,5aR,5bR,7aR,9S,11aR,11bR,13aR)-3a-(((1S,3R)-2,2-dimethyl-3-(morpholine-4-carbonyl)cyclobutyl)carbamoyl)-5a,5b,8,8,11a-pentamethyl-1-(1-methylcyclopropyl)icosahydro-1H-cyclopenta[a]chrysen-9-yl)oxy)-3,3-dimethyl-5-oxopentanoic acid] | 95 | 85 | 100 | 100
